From patent US20220380769A1 (priority 2020, published 2022)
Values after ≈ are worked out from the molar mass of the structure shown. “Also recorded” adds a separate entry of the source. Where two headings read alike, the source gives them in different places.

Experiments:
[1] = system: SARS-CoV-2 (strain USA-WA1/2020); experiment: microbe, parasite or virus in culture; assay type: cell-based
[2] = system: SARS-associated coronavirus Strain FFM1; conditions: Strain FFM1/CL-14; cited from earlier work
SARS-CoV Strain v2163 = conditions: in vivo, cited from earlier work
[3] = system: SARS coronavirus 2003VA2774; conditions: cited from earlier work
[4] = system: SARS coronavirus Strain 39849; conditions: Strain 39849/Vero E6; cited from earlier work
[5] = system: SARS-associated coronavirus Strain FFM1; conditions: Strain FFM1/Caco-2; cited from earlier work
[6] = human; cited from earlier work
human CoV strain OC43 = conditions: Strain OC43/BS-C-1 Kidney cells (African Green Monkey); inhibition of CPE; cited from earlier work
Ebola Virus = conditions: in vivo, 6 mg/kg
[7] = system: avian H5N1 and H7N9 influenza hemagglutinins (HAs); conditions: in vivo; cited from earlier work
Mouse Hepatitis CoV MHV = conditions: Mouse Hepatitis CoV MHV/BALB/c mice/IP; 10 μg/dose; cited from earlier work
[8] = system: normal, human-derived tracheal/bronchial epithelial (TBE) cells
[9] = Clinical safety and tolerability in humans; assay type: in vivo, human
Source text: Favorable safety profiles have been seen for intraperitoneal, intravenous, and intranasal routes of administration of tdsRNA.

H5N1 influenza virus = conditions: in vivo; cited from earlier work
[10] = system: SARS virus (Urbani Strain); conditions: in vivo, cited from earlier work
H5N1 influenza viruses = conditions: in vivo; cited from earlier work
[11] = cited from earlier work
[12] = Synergy of rintatolimod with antiviral and antiproliferative drugs
Source text: These interferons include rIFN-α-2a, rIFN-β-1b, rIFN-γ.

[13] = Development of antibodies to the dsRNA in usage
Source text: (§1) Of the tdsRNA of the disclosure, the tdsRNA of formula 1 and formula 5 is preferred. This is because mis-paired regions of base pair hydrogen bonding accelerate chain hydrolysis while preserving biological activity compared to, for example, formula 3 and formula 4. Also formula 1 and formula 5 had decreased toxicity and improved safety compared to the tdsRNA which has an absence of mis-pairing.

TNF-α = TNF-α induction
Source text: as §1

TLR3 = TLR3 agonist selectivity versus RNA helicase sensors (MDA5, RIG-I); conditions: versus TLR-3 independent pathways (MDA5, RIG-I)
Source text: as §1

For `CCC(CC)COC(=O)[C@H](C)N[P@](=O)(OC[C@H]1O[C@@](C#N)(c2ccc3c(N)ncnn23)[C@H](O)[C@@H]1O)Oc1ccccc1` [Remdesivir], the “Log10 CCID50 virus per 0.2 mL” value ([1]; 0.001 μg/mL) was 4.30, the “Log10 CCID50 virus per 0.2 mL” value ([1]; 0.01 μg/mL) was 3.67 and the “Log10 CCID50 virus per 0.2 mL” value ([1]; 0.1 μg/mL) was 3.00. The “Log10 CCID50 virus per 0.2 mL” value ([1]; 1 μg/mL) was 3.00 and the EC90 ([1]; Severe acute respiratory syndrome coronavirus 2, read-out: EC90 (concentration to reduce virus yield by 1 log10)) was 0.01 µg/mL (≈ 0.0166 µM).

In the case of `NC(=O)c1ncn([C@@H]2O[C@H](CO)[C@@H](O)[C@H]2O)n1` [Ribavirin], the EC50 [2] is given as “EC50: 5.3 μg/mL”, the “Survival (mice surviving/total)” value (SARS-CoV Strain v2163) is given as “(3/10) 65” and the IC100 [3] is given as “IC100: 5,000 μg/mL”. The EC50 [4] was “EC50: 50-100 μg/mL”, the EC50 [5] was “EC50: 4.7 μg/mL” and the “clinically achievable serum concentrations” value [6] was 3.7 µg/mL.

For “Polyribosinic-Polyribocytidylic Acid Stabilized with Poly-L-lysine, in Carboxymethylcellulose [Poly ICLC]”, the EC50 (human CoV strain OC43) is given as “EC50: >100 μg/mL”.

For rIn.r(C12U)n [Rintatolimod], the Survival (Ebola Virus) is listed as 100%, the “lung scores and weight loss” value (SARS-CoV Strain v2163; 10 mg/kg/day) is listed as “significantly reduced” and the Survival (SARS-CoV Strain v2163) is listed as 100%. For the same molecule, the “Survival (mice surviving/total)” value (SARS-CoV Strain v2163) was 10/10 and (10/10), the “decline of virus in the lungs compared with untreated animals” value (SARS-CoV Strain v2163) was “more rapid decline of virus in the lungs” and the “cross-reactive IgA antibody formation against avian H5N1 and H7N9 influenza hemagglutinins” value [7] was “induced cross-reactive IgA antibody formation”. The “tolerability of combinational use with FluMist” value [7] was “well tolerated”, the Survival (Mouse Hepatitis CoV MHV) was “increased survival” and the “cytotoxic / cellular toxicity” value ([8]; 0.5 mg/mL) was 0%. The “cytotoxic / cellular toxicity” value ([8]; 1.5 mg/mL) was 0%, the cytotoxic ([8]; 4.5 mg/mL) was 12% and the cytotoxic ([8]; 10 mg/mL) was 47%. The drug-related deaths ([9]; clinical trials, over 1,200 patients) was “no drug-related deaths”, the “tolerability in clinical trials” value ([9]; over 1,200 patients, over 100,000 doses) was “well-tolerated” and the “serious adverse events compared to placebo” value ([9]; two placebo-controlled, randomized studies) was “no increase”. The “Vaccine specific salivary IgA and serum IgG antibodies” value (H5N1 influenza virus) was “detected after the second immunization”, the “protection from challenge infection with the homologous virus” value (H5N1 influenza virus) was “completely protected” and the “serum neutralizing antibody activity against homologous and heterologous H5N1 influenza virus” value (H5N1 influenza virus) was “developed serum neutralizing anti-body activity”. For the same molecule, the “Drug Dose giving reduction of virus lung titers below level of detection on Day 3” value ([10]; ip) was 10 mg/kg, the “SARS virus (Urbani Strain) titers in the lungs” value [10] was “Complete inhibition to below detectable levels; also recorded: reduced virus lung titers to below detectable limits” and the “antigen specific IgA response in the nasal mucosa” value (H5N1 influenza viruses) was “robust antigen specific IgA response”. The “protection against challenge with homologous and heterologous H5N1 influenza viruses” value (H5N1 influenza viruses) was “protected”, the “tolerability of dosage level” value ([11]; 700 mg in an average weight human (70 kg), equivalent to 10 mg/kg) was “generally well-tolerated” and the tolerability administered intravenously ([11]; Chronic Fatigue Syndrome (CFS) patients, placebo-controlled trials) was “generally well-tolerated”. The “synergy with α, β, and γ interferons, antiviral indication” value ([12]; HIV/AIDS, rIFN-α-2a, rIFN-β-1b, rIFN-γ) was “synergy; also recorded: synergistic”, the “synergy with small molecule antiviral drugs” value ([12]; Influenza (oseltamivir, zanamivir), HIV/AIDS (abacavir, zidovudine, zalcitabine, didanosine, stavudine, efavirenz, indinavir, ritonavir, nelfinavir, amprenavir, ribavirin)) was “synergy; also recorded: synergistic” and the “synergy, antiproliferative (cancer) indications” value ([12]; interferons (nIFN-α, rIFN-α-2a, nIFN-β, rIFN-β-1b, nIFN-γ), IL-2, Anti-PD-L1) was “synergistic”.

With rIn.r(CxU)n [formula 1] the development of antibodies [13] was “no development of antibodies”, the TNF-α induction (TNF-α) was “does not induce TNF-α” and the TLR3 agonist selectivity (TLR3) was “selective TLR3 agonist”.

For rIn.rCn [formula 4], the TNF-α induction (TNF-α) was “high levels” and the TLR3 agonist selectivity (TLR3) was “non-selective”.

For rugged dsRNA [formula 5], the development of antibodies [13] was “no development of antibodies”, the TNF-α induction (TNF-α) was “does not induce TNF-α” and the TLR3 agonist selectivity (TLR3) was “selective TLR3 agonist”.
